Columns and labels:
[1] = system: acetaminophen-induced liver injury; test: Acetaminophen-induced liver injury in mice treated with GC and vitamins, serum ALT and AST (Example 2); format: in vivo, Male C57B1/6 mice; conditions: 24 hr after acetaminophen; vitamins by gavage, with or without 100 μg GC two hours before acetaminophen
Method: Male C57B1/6 mice (11-12 weeks old) were obtained from Harlan Laboratories (Jerusalem, Israel) and maintained in the Animal Core of the Hadassah-Hebrew University Medical School. β-glucosylceramide (GC) was purchased from Avanti Polar Lipids (Alabaster, Ala., USA). […] Acetaminophen Sigma (cat. # A7085), was dissolved in a mixture of 30% Cremophor EL (Sigma, Rehovot, Israel) and ethanol (1:1) in DDW (Di distilled water). Mice were tested for serum Alanine transaminase (ALT) and Aspartate aminotransferase (AST) at 24 hours after acetaminophen administration. Serum AST and ALT levels were measured by an automatic analyzer. Mice of all groups (eight per group) were fasted for eight hours before oral administration of acetaminophen and for additional four hours after administration. […] Animals were sacrificed after 24 hours, and liver damage was assessed in all groups by examining serum levels of ALT, AST, GSH and TNF-α.

[2] = system: hepatic NKT cells; test: Flow cytometry of hepatic NKT lymphocytes (CD3+NK1.1+) after acetaminophen; format: in vivo, mice; conditions: pretreatment before acetaminophen
Method: For intrahepatic lymphocytes, livers were first crushed through a stainless mesh (size 60, Sigma) and cell suspension was placed in a 50-mL tube for 5 min to pellet the cell debris. Ten milliliters of Lymphoprep (Ficoll, Axis-Shield PoC AS, Oslo, Norway) was slowly placed under the same volume of cell suspension in 50-mL tubes. The tubes were then centrifuged at 1800 rpm for 18 min. Cells at the interface were collected and transferred to new tubes, which were then centrifuged at 1800 rpm for 10 min, to obtain a cell pellet depleted of hepatocytes in a final volume of 250 μl. Approximately 1×10^6 cells/mouse liver were recovered.
Flow cytometry was performed following lymphocyte isolation using 1×10^6 lymphocytes in 100 μl PBS. […] Pacigic Blue anti mouse CD4, FITC-anti mouse CD8 subsets were also used ((eBioscience, USA). For intracellular staining we used PE-anti mouse CD25 and PE-Cy7 anti mouse FOXp3 (eBioscience, USA). Cells were incubated for 30 min at 4° C. in the dark, and washed and resuspended in 200 μl PBS. Analytical cell sorting was performed on 1×10^4 cells from each group using a fluorescence-activated cell sorter (FACSTAR plus, Becton Dickinson). Only live cells were counted and unstained cells served as controls for background fluorescence. Gates were set on forward- and side-scatters to exclude dead cells and red blood cells. […]

[3] = system: acetaminophen-induced liver injury; test: Acetaminophen-induced liver injury in mice treated with GC, serum ALT and AST (Example 1); format: in vivo, Male C57B1/6 mice; parameters: ALT levels: unit not given here; conditions: for ALT levels: p<0.001; for AST levels: control group A 6634, p<0.04
Method: Male C57B1/6 mice (11-12 weeks old) were obtained from Harlan Laboratories (Jerusalem, Israel) and maintained in the Animal Core of the Hadassah-Hebrew University Medical School. β-glucosylceramide (GC) was purchased from Avanti Polar Lipids (Alabaster, Ala., USA). Glycolipids (3.3 mg/ml) were dissolved in a mixture of 30% Cremophor EL (Sigma, Rehovot, Israel) and ethanol (1:1, C:E) in PBS. Acetaminophen Sigma (cat. # A7085), was dissolved in a mixture of 30% Cremophor EL (Sigma, Rehovot, Israel) and ethanol (1:1) in DDW (Di distilled water). […] Serum AST and ALT levels were measured by an automatic analyzer. Beta glycolipides were previously shown by the present inventors as having immunomodulatory effects. […] The inventors therefore next examined whether such effect may also enhance the glutathione system and thereby ameliorate hepatic injury induced by drugs such as acetaminophen. The effect of GC on acetaminophen-induced liver injury was evaluated by examination of liver enzyme (ALT and AST). Three groups of mice, 15 animals per group, were studied. Mice of all groups were fasted for eight hours before oral administration of acetaminophen and for additional four hours after administration. Mice in all groups were administered orally (PO) with 10 mg/330 μl acetaminophen (in C:E gavage administration). In addition, mice were administered with 100 μg β-glucosylceramide (β-GC, in 30 μl of C:E) two hours before administration of acetaminophen (Group B) and every two hours after acetaminophen administration (Group C), Mice in control group A were treated only with oral PBS.

`O=C1O[C@H]([C@@H](O)CO)C(O)=C1O` [vitamin C, L-Ascorbic acid] was tested, and the “effect on ALT levels (FIG. 4)” value [1] was “negligible effect”.

In the case of `Cc1c(C)c2c(c(C)c1O)CC[C@@](C)(CCC[C@H](C)CCC[C@H](C)CCCC(C)C)O2` [vitamin E, α-Tocopherol], the “change in hepatic NKT cells” value [2] is reported as “became significant” and the “effect on ALT levels (FIG. 4)” value [1] is reported as “negligible effect”.

β-glucosylceramide [GC] showed an ALT levels ([3]; 12 hr after acetaminophen 10 mg PO, 100 μg GC every two hours after acetaminophen (Group C), control group A 505) of 364, an ALT levels ([3]; 12 hr after acetaminophen 10 mg PO, 100 μg GC two hours before acetaminophen (Group B), control group A 505) of 332 and an AST levels ([3]; 24 hr after acetaminophen, GC every two hours after acetaminophen (Group C)) of 4029. For the same molecule, the ALT levels ([3]; 24 hr after acetaminophen, GC every two hours after acetaminophen (Group C), control group A 12150) was 5034, the AST levels ([3]; 24 hr after acetaminophen, GC two hours before acetaminophen (Group B)) was 3650 and the ALT levels ([3]; 24 hr after acetaminophen, GC two hours before acetaminophen (Group B), control group A 12150) was 5222. The “change in hepatic NKT cells” value [2] was “small increase”.

— patent publication US20120148547A1, “COMBINATION OF VITAMIN E AND BETA-GLYCOSPHINGOLIPIDS IN COMPOSITIONS AND METHODS FOR PREVENTING AND TREATING HEPATIC DISORDERS” (Hadasit Medical Reasearch Services & Development Ltd., priority 2009, published 2012)
